From patent US20230190760A1, “ADVANTAGEOUS THERAPIES FOR DISORDERS MEDIATED BY IKAROS OR AIOLOS” (C4 Therapeutics, Inc., priority 2020, published 2023)

Tests used:
[1] = test system: IKZF1 and IRF-4; assay: KI-JK ALCL tumor pharmacodynamic study, western blot (Example 17); assay type: in vivo, mice; settings: single dose, 6-hour and 24-hour timepoint
Description: A pharmacodynamic study was also conducted in female NOD SCID mice bearing KI-JK ALCL tumors. […] Once tumors reached a volume of 450 mm^3 they were stratified into 3 treatment groups, consisting of 4 mice each.
Mice were sacrificed and tumors harvested at 6 and 24 hours post single dose. Tumors were mechanically homogenized, and protein extracted using RIPA buffer (Sigma Aldrich). Protein concentration was quantified using a Pierce™ BCA Protein Assay Kit, samples were reduced, and equal protein amounts were then loaded onto a western blot gel for analysis. Samples were analyzed for IKZF1 (Invitrogen, PA5-23728) and IRF-4 (CST, 15106) expression. Data is expressed as percentage of IKZF1 or IRF-4 in comparison to the vehicle control and normalized to GAPDH levels to control for protein loading. Error bars represent ±SEM values.

[2] = Plasma PK and interconversion in monkeys; assay type: in vivo; settings: monkey, Compound 1 60 μg/kg or 100 μg/kg PO
Description: Compound 1 was administered to a rat at a concentration of 30 mg/kg PO and monkeys at a concentration of either 60 μg/kg or 100 μg/kg PO. At the indicated timepoints shown in FIG. 25A and FIG. 25B, plasma samples were collected and the Cmax, half-life, and AUC0-inf were determined for both Compound 1 and a metabolite of Compound 1, Compound 14. The percent of Compound 14 was also determined (Table 13). PK values dose normalized to 1 mg/kg. FIG. 25A is a graph measuring the concentration of Compound 1 or Compound 14 over the course of 24 hours in monkeys administered 100 μg/kg or 60 μg/kg of Compound 1. FIG. 25B is a graph measuring the concentration of Compound 1 or Compound 14 over the course of 24 hours in a rat administered 30 mg/kg of Compound 1.

[3] = test system: TMD8 DLBCL tumors; settings: Compound 1 50 μg/kg, Ibrutinib 12500 μg/kg
Description: A xenograft study was conducted in female CB17 SCID mice bearing TMD8 DLBCL tumors. Female SCID mice were inoculated subcutaneously in the right flank with 5×10^6 tumors cells in 0.2 mL of PBS supplemented with matrigel (PBS:matrigel=1:1). Tumor volume was measured twice weekly in two dimensions using calipers, and volume was calculated using the formula: (w2×l)/2=mm^3, assuming 1 mg is equivalent to 1 mm^3 of tumor volume. […] Treatment began on Day 0 with established subcutaneous TMD8 tumors with a mean tumor volume (MTV) of 107-108 mm^3.
All agents were administered to mice bearing TMD8 tumors on day 0 and dosed PO daily until individual tumor volumes reached or exceeded 1500 mm^3, at which point dosing stopped and the individual mouse was removed from the study. Compound 1 was dosed at 50 μg/kg and was formulated in PEG400 (30% v/v)+70% v/v HPMC (1% w/v) in citrate buffer (pH 5). Ibrutinib was dosed at 12.5 mg/kg and formulated in 0.5% MC+0.4% cremophor EL+0.1% sodium lauryl sulfate. Compound 1 was also dosed in combination with Ibrutinib at their respective single agent doses. Body weight and MTV was measured on a 2× weekly schedule and the study end point was when all mice were removed from the study on day 54. Statistical analysis was performed using survival analysis and the Logrank test (Mantel-Cox test). Data are expressed as MTV±SEM.

[4] = test system: Pfeiffer; assay: Anti-proliferative activity, 96 hours; settings: Homo sapiens
[5] = test system: MM.1S; assay: Anti-proliferative activity, 96 hours; settings: Homo sapiens, MM1.S
[6] = test system: RPMI 8226; assay: Anti-proliferative activity, 96 hours; settings: Homo sapiens, RPMI-8226, 96 h
[7] = test system: KMS-26; assay: Anti-proliferative activity, 96 hours; settings: KMS-26, 96 h
[8] = test system: NCIH929 cells; assay: NCI-H929 viability assay (CellTiter-Glo)
Description: NCIH929 cell viability was determined based on quantification of ATP using CellTiter-Glo®2.0 luminescent Assay kit, which signals the presence of metabolically-active cells. Briefly, test compound was added to 384-well plates at a top concentration of 1 μM with 10 points, half log titration in duplicates. NCIH929 cells were seeded into the 384-well plates in RPMI medium containing 10% FBS and 0.05 mM 2-mercaptoethanol at a cell density of 750 cells per well. Cells treated in the absence of the test compound were the negative control and cells treated in the absence of CellTiter-Glo® 2.0 were the positive control. Cells treated with the test compounds were incubated at 37° C. with 5% CO2 for 96 hr. CellTiter-Glo reagent was then added to the cells and Luminescence was acquired on EnVision™ Multilabel Reader (PerkinElmer, Santa Clara, Calif., USA). % Viability was determined by normalizing the signal with positive and DMSO treated negative controls on the same microtiter plate. […] Curve fit and IC502 determination was performed by 4 parametric regression analysis.

With `O=C1CC[C@H](N2C(=O)c3cccc4c(Cc5ccc(CN6CCOCC6)cc5)ccc2c34)C(=O)N1` (single isomer, unassigned) [Compound 1] the “percentage of IKZF1 and IRF-4 compared to pomalidomide” value [1] was “smaller”, the AUC(0-inf) ([2]; dose normalized to 1 mg/kg) was 1280 ng·h/mL and the Cmax ([2]; dose normalized to 1 mg/kg) was 83 ng/mL. For the same molecule, the half-life ([2]; read-out: T ½ (converted)) was 9 h, the “Median Survival” value ([3]; Combination of both, PO daily) was 30 and the “Statistical Significance Compared to Vehicle” value ([3]; survival, Logrank, Combination) was 0.02. It also gave an IC50 [4] of 1080 pM, an IC50 [5] of 36 pM and an IC50 [6] of 698 pM. The IC50 [7] was 789 pM, the “Mean Emax (%) ± SD, H929 Viability” value ([8]; 96 hours, % viability) was 4.0 ± 0.5% and the maximal growth inhibition ([8]; previously untreated NCIH929) was 96%. It also gave an IC50 ([8]; read-out: Mean IC50 (nM), H929 Viability, 96 hours) of 0.071 nM.
